Test results published in US20230037862A1, “SYNTHETIC AGONISTS OF TLR4 RECEPTOR” (UNIVERSITÀ DEGLO STUDI DI MILANO - BICOCCA, priority 2017, published 2023).
“Also recorded” adds a separate entry of the source.

Tests used:
[1] = target: T1, purified human MD-2 receptor (Homo sapiens, UniProt Q9Y6Y9); assay: Surface plasmon resonance binding to MD-2
T1 sequence (Q9Y6Y9 19-160): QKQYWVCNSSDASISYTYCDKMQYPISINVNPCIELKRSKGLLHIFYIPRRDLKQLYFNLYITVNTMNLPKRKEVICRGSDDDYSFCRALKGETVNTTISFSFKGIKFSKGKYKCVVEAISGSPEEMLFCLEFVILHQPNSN
Procedure: Surface plasmon resonance (SPR) experiments enable the study of direct interactions between the molecules to be characterized and MD-2.
The binding affinity of the compounds to recombinant MD-2 was determined using a Biacore X100 with an NTA sensor chip (Biacore, GE Healthcare, Uppsala, Sweden). Briefly, 0.5 μM MD-2 (in 50 mM TRIS, 150 mM NaCl, 0.5% Tween 20, pH 7.5) was immobilized onto the sensor chip previously activated with 1 min pulse of 10 mM NiSO4. The first flow cell was used as a reference surface to control nonspecific binding.
Both flow cells were incubated with the analyte (in PBS, 5% DMSO, 5% EtOH, pH 7.5) at a flow rate of 10 μL/min at 25° C. at increasing concentrations. The data were analyzed with Biacore Evaluation software. KD values were calculated by global fitting of the equilibrium binding responses from various concentrations of analytes using a 1:1 Langmuir binding model.

[2] = target: T1, purified human MD-2 receptor; assay: Anti-MD-2 antibody (9B4) competition, antibody-sandwich ELISA; type: binding; conditions: up to 20 μM
Procedure: The direct binding of molecules FP11 and FP111 to MD-2 was analyzed by using a monoclonal antibody binding MD-2, but not LPS-bound MD-2 (Viriyakosol, S., et al., Characterization of monoclonal antibodies to human soluble MD-2 protein. Hybridoma (Larchmt), 2006. 25(6): p. 349-57).
Anti-MD-2 monoclonal antibody (9B4) specifically binds an epitope near the MD-2 hydrophobic pocket, which is available for 9B4 antibody binding only when the MD-2 hydrophobic pocket is empty. Compound FP11 is accountable for a decrease of 9B4 antibody binding to MD-2 equal to 95% at a concentration of 20 μM (FIG. 3E).
The method of antibody-sandwich ELISA for the detection of the binding of compounds to MD-2 was modified from a previous study.
(§1) A microtiter plate was coated overnight at 4° C. with 100 μL/well of 5 μg/mL of chicken polyclonal anti-MD-2 antibodies, diluted in 50 mM Na2CO3 buffer, pH 9.6, and blocked with 1% BSA in PBS. After washing, 1 μM MD-2 with tested compounds was added and incubated for 2 h.
Mouse anti-MD-2 mAb (0.1 μg/mL 9B4) and goat antimouse IgG conjugated with HRP (0.1 μg/mL) in PBS were added, followed by detection at 420 nm after the addition of 100 μL of ABTS (Sigma).
Chicken anti-MD-2 polyclonal antibodies were prepared against recombinant MD-2 by GenTel (Madison, Wis., USA), monoclonal mouse anti-MD-9B4 antibodies were from eBioscience (San Diego, Calif., USA), and secondary goat antimouse IgG conjugated with horseradish peroxidase was from Santa Cruz Biotechnology (Santa Cruz, Calif., USA).

hTLR4 = target: T2, hTLR4 (Homo sapiens, UniProt O00206+Q9Y6Y9); assay: HEK-Blue hTLR4 SEAP reporter assay (NF-κB/AP-1 activation); type: cell-based; conditions: HEK-Blue hTLR4 cells, 16-18 hours, SEAP reporter
T2 construct: host or cells: HEK-Blue hTLR4 (HEK cells)
Procedure: (§2) HEK-Blue™ hTLR4 (FIG. 1A) and HEK-Blue™ Null2 (FIG. 1B) cells were treated with the indicated concentrations of compounds FP11, FP111, and with LPS (100 ng/mL) and incubated for 16-18 hours. Results were normalized to stimulation with LPS alone, and are expressed as mean of percentage ±ES. of at least three independent experiments.
HEK-Blue™ hTLR4 cells were treated with increasing concentrations of compound FP11 and of LPS and incubated for 16-18 hours. Results were normalized to maximum activation of the reporter produced by LPS (FIG. 2A) and to maximum activation of the reporter produced by the compound itself (FIG. 2B). Data were fitted to a sigmoidal four-parameter logistic equation in order to determine IC50 values, and expressed as mean of percentage ±ES of at least three independent experiments.
HEK-Blue™ hTLR4 cells are HEK cells transfected so as to stably express human receptors hTLR4, hMD-2, and hCD14 for endotoxin recognition. In addition, said cells have a reporter gene encoding for a secreted alkaline phosphatase (SEAP) μlaced under the control of specific transcription factors (NF-κB and AP-1) activated by the TLR4 signaling pathway. Therefore, the presence of LPS or of an agonist of TLR4 causes receptor dimerization, activation of the signaling pathway and of transcription factors NF-κB and AP-1, and finally SEAP production and secretion into the culture medium. SEAP levels can be subsequently quantitated by incubating the medium with compound p-nitrophenylphosphate (pNPP) and monitoring with a spectrophotometer the formation of p-nitrophenol chromogenic product at 405 nm.
HEK-Blue™ hTLR4 cells (InvivoGen) were cultured according to manufacturer's instruction. […]
Cells were detached using a cell scraper, counted and seeded in a 96-well multiwell plate at a density of 4×10^4 cells per well. […]
The wells' optical density was determined using a microplate reader set at 405 nm.
The results were normalized with positive control (LPS alone) and expressed as a mean of percentage ±SEM of at least three independent experiments.

HEK-Blue™ Null2 cells = assay: HEK-Blue Null2 counter-assay (SEAP reporter, no TLR4/MD-2/CD14); type: cell-based; conditions: 16-18 hours
Procedure: as §2
In order to be certain that the agonist effect of compound FP11 be due to the interaction with the TLR4 receptor, the compounds were tested on the HEK-Blue™ Null2 cell line. Said line expresses the same reporter gene of HEK-Blue™ hTLR4 cells (SEAP), but has none of the receptors involved in endotoxin recognition (TLR4, MD-2, CD14).

[3] = target: T1, purified human MD-2 receptor; assay: MD-2-bound fluorescent molecule (bis-ANS) displacement assay; type: binding; conditions: MD-2 200 nM, bis-ANS 200 nM
Procedure: therefore, TLR4 modulators that interact with MD-2 compete with compound bis-ANS, and are able to displace it from MD-2.
Fluorescence was measured on PerkinElmer fluorimeter LS 55 (PerkinElmer, UK) as previously described^[5].
All measurements were done at 20° C. in a 5×5 mm quartz glass cuvette (Hellma Suprasil, Müllheim, Germany). MD-2 protein (200 nM) and 1,1′-Bis(anilino)-4,4′-bis (naphtalene)-8,8′ disulfonate (bis-ANS, 200 nM) were mixed and incubated until reaching stable relative fluorescence units (RFUs) emitted at 420-550 nm under excitation at 385 nm.
Compounds, at different concentrations, were then added, followed by relative fluorescence unit (RFU) measurement at 420-550 nm.

[4] = target: T1, purified human MD-2 receptor; assay: Biotinylated LPS displacement from MD-2 hydrophobic pocket (ELISA); type: binding; conditions: increasing concentrations, highest 160 μM
Procedure: The ability to displace LPS from MD-2 hydrophobic pocket was assessed by using an ELISA assay. Molecules FP11 and FP111 were added at increasing concentrations to MD-2 which had previously been incubated with biotinylated LPS.
The ability of the compounds to displace LPS from MD-2 hydrophobic pocket was determined by ELISA.
as §1, with “μg/mL” for “μg/mL of”, “biotin-labeled LPS” for “tested compounds”, “h. After washing, the compounds were added at different concentrations and incubated for 1.5 h.” for “h.”
After washing, 0.5 μg/mL HRP-conjugated streptavidin (Sigma) in PBS was added, followed by detection at 420 nm after the addition of 100 μL of ABTS (Sigma). Chicken anti-MD-2 polyclonal antibodies were prepared against recombinant MD-2 by GenTel (Madison, Wis., USA),

Escherichia coli = conditions: one dose one day prior to microbial inoculation; cited from earlier work
[5] = repeated dosages; cited from earlier work
[6] = system: murine macrophages and neutrophil granulocytes; conditions: cited from earlier work
[7] = galactosamine-sensitized mice; cited from earlier work
[8] = tumour-affected patients; cited from earlier work
infective agent = conditions: once or thrice, myelo-suppressed or immunocompetent mice; cited from earlier work
CD14 = conditions: human peripheral blood cells; cited from earlier work

T2 sequence (O00206 24-839): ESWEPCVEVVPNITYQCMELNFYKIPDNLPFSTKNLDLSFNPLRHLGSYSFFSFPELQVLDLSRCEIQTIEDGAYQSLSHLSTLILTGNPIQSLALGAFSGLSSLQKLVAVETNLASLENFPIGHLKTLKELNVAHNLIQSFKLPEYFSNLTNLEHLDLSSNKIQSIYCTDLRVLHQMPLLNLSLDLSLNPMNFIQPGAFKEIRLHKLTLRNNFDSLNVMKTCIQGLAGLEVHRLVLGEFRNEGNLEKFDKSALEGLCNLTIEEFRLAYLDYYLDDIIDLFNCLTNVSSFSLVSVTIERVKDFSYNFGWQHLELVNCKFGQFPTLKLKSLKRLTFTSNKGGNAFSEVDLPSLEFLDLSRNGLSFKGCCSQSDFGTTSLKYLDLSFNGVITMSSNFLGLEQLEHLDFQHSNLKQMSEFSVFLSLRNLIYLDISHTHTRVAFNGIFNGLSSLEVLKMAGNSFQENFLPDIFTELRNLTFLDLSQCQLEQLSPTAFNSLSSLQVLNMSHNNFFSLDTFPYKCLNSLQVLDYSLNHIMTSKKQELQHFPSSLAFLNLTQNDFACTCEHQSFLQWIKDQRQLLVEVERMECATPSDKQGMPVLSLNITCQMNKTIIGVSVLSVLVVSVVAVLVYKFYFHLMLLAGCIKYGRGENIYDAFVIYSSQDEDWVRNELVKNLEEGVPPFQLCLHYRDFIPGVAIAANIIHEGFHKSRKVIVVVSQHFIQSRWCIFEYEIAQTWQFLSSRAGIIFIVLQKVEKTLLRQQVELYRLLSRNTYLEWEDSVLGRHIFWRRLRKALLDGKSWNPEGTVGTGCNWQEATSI
T2 sequence (Q9Y6Y9 17-160 limits assumed): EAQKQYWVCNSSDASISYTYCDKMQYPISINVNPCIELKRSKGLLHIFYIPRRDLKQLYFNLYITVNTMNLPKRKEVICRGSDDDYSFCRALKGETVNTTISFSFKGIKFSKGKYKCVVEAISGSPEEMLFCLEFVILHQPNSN

| SMILES | direct binding to MD-2 (SPR) [1] | prevention of monoclonal antibody 9B4 binding to MD-2 [2] | TLR4 agonist activity (activation of NF-κB and AP-1) (hTLR4) | activation of transcription factors NF-κB and AP-1 in cells without TLR4, MD-2, CD14 (HEK-Blue™ Null2 cells) | decrease of bis-ANS fluorescence / inhibition of bis-ANS binding to MD-2 [3] | ability to displace biotinylated LPS from MD-2 hydrophobic pocket [4] | effect on curative effects of antibiotics (Escherichia coli) | duration of transient resistance to endotoxin-related lethal risks [5] [week] | stimulation of release of IL-6, IL-8 and TNF-α [6] | factor of toxicity reduction compared to parent endotoxin (Salmonella abortus equi) [7] | effect on granulocyte counts and serum cytokine levels [8] | safety and tolerability of administration [8] | protective effect on prophylactic administration (infective agent) | blocking of compound-induced TNF-α release by monoclonal antibodies for CD-14 (CD14) |
| --- | --- | --- | --- | --- | --- | --- | --- | --- | --- | --- | --- | --- | --- | --- |
| CCCCCCCCCCCCCC(=O)NC1[C@H](OP(=O)(O)O)OC(COP(=O)(O)O)[C@@H](OC(=O)CCCCCCCCCCCCC)[C@@H]1OC(=O)CCCCCCCCCCCCC (stereo partly drawn) [FP111, 1,6-O-Phosphoryl-2-deoxy-4-O-tetradecanoyl 3-O-tetradecanoyl-2-tetradecanoylamino-α-D-glucopiranoside] | but not FP111, directly binds MD-2; also recorded: does not bind MD-2 | unable to cause a decrease of 9B4 antibody binding; also recorded: but not FP111, prevents the binding of monoclonal antibody to MD-2 | completely inactive | unable to activate transcription factors NF-κB and AP-1 | not able to induce a decrease of compound bis-ANS fluorescence; also recorded: but not FP111, inhibits the binding of bis-ANS to MD-2 | unable to displace biotinylated LPS; also recorded: but not FP111, displaces biotinylated LPS |  |  |  |  |  |  |  |  |
| CCCCCCCCCCC[C@@H](O)CC(=O)N[C@H]1[C@@H](OP(=O)(O)O)O[C@H](CO)[C@@H](OC(=O)C[C@H](O)CCCCCCCCCCC)[C@@H]1OC(=O)C[C@H](O)CCCCCCCCCCC [SDZ MRL 953] |  |  |  |  |  |  | dramatically increased the curative effects of antibiotics administered | ≥ 1 | potent activity in stimulating the release of inflammatory cytokines | at least 10^4 | increases granulocyte counts and serum levels of G-CSF and interleukin-6 (IL-6), but not of pro-inflammatory cytokines TNF-α, IL-1b, and IL-8 | safe and of excellent tolerability | highly protective effect | is not blocked |
